Experimental data published in EP3784230B1, “THE USE OF TERPENIC COUMARINE DERIVATIVE MOLECULES IN THE TREATMENT OF CANCER DISEASE” (T.C. Istanbul Medipol Universitesi, priority 2018, dated 2019).
Read-outs that look alike come from different tables or passages of the source.

Tests used:
TC32 = assay: Cytotoxic activity (IC50) on cancer cell line TC32; type: cell-based; conditions: Homo sapiens, TC-32, read-out: Cytotoxic Activity ( IC 50 )
Text: (§1) The inventors have determined the cytotoxic activity (IC 50 values) of the compounds according to the invention together with various agents present in the prior art on cell lines of different types of cancer.

A498 = assay: Cytotoxic activity (IC50) on cancer cell line A498; type: cell-based; conditions: Homo sapiens, read-out: Cytotoxic Activity ( IC 50 )
Text: as §1

KM12 = assay: Cytotoxic activity (IC50) on cancer cell line KM12; type: cell-based; conditions: Homo sapiens, read-out: Cytotoxic Activity ( IC 50 )
Text: as §1

A673 = assay: Cytotoxic activity (IC50) on cancer cell line A673; type: cell-based; conditions: Homo sapiens, read-out: Cytotoxic Activity ( IC 50 )
Text: as §1

UO31 cell line [1] = assay: Cytotoxic activity (IC50) on kidney cancer cell line UO31; type: cell-based; conditions: Homo sapiens, UO-31; U031 (kidney cancer cell line); read-out: Cytotoxic Activity ( IC 50 )
Text: as §1
The UO31 cell line is known to be the kidney cancer cell line. Taxol, vinblastine and vincristine anti-cancer agents are used against the kidney cancer in the state of the art.

COLO205 = assay: Cytotoxic activity (IC50) on cancer cell line COLO205; type: cell-based; conditions: Homo sapiens, COLO 205, read-out: Cytotoxic Activity ( IC 50 )
Text: as §1

UO31 cell line [2] = conditions: Ferguson R.E. et al., Int. J. Cancer 2005, 115, 155-163, read-out: IC 50 value; cited from earlier work

SMILES	IC50 (TC32)	IC50 (A498)	IC50 (KM12)	IC50 (A673)	IC50 (UO31 cell line [1])	IC50 (COLO205)	IC50 (UO31 cell line [2])
CC(C)=CCC/C(C)=C/CC/C(C)=C/COc1ccc2ccc(=O)oc2c1 [REFERENCE MOLECULE I]	> 50 µM	> 50 µM	> 50 µM	> 50 µM	1.8 µM	> 50 µM	
C=C1CC[C@@H]2C(C)(C)[C@@H](O)CC[C@@]2(C)[C@@H]1COc1ccc2ccc(=O)oc2c1 [EXAMPLE MOLECULE II]	> 50 µM	20 µM	9.1 µM	> 50 µM	0.38 µM	> 50 µM	
C=C1CC[C@@H]2[C@](C)(CO)[C@H](O)CC[C@@]2(C)[C@@H]1COc1ccc2ccc(=O)oc2c1 [REFERENCE MOLECULE V]	> 50 µM	> 50 µM	> 50 µM	> 50 µM	> 50 µM	> 50 µM	
CC(=O)O[C@H]1C(=O)[C@@]2(C)[C@H]([C@H](OC(=O)c3ccccc3)[C@]3(O)C[C@H](OC(=O)[C@H](O)[C@@H](NC(=O)c4ccccc4)c4ccccc4)C(C)=C1C3(C)C)[C@]1(OC(C)=O)CO[C@@H]1C[C@@H]2O [taxol]							> 50 µM
CC[C@]1(O)C[C@H]2CN(CCc3c([nH]c4ccccc34)[C@@](C(=O)OC)(c3cc4c(cc3OC)N(C=O)[C@H]3[C@@](O)(C(=O)OC)[C@H](OC(C)=O)[C@]5(CC)C=CCN6CC[C@]43[C@@H]65)C2)C1 [vincristine]							> 100 µM
C=C1CC[C@H]2[C@@](C)(CCC(=O)[C@@]2(C)COC(C)=O)[C@@H]1COc1ccc2ccc(=O)oc2c1 [REFERENCE MOLECULE IV]	> 50 µM	> 50 µM	> 50 µM	> 50 µM	> 50 µM	> 50 µM	
C=C1CC[C@@H]2C(C)(C)C(=O)CC[C@@]2(C)[C@@H]1COc1ccc2ccc(=O)oc2c1 [REFERENCE MOLECULE III]	> 50 µM	> 50 µM	> 50 µM	> 50 µM	11 µM	> 50 µM	
CC[C@]1(O)C[C@@H]2CN(CCc3c([nH]c4ccccc34)[C@@](C(=O)OC)(c3cc4c(cc3OC)N(C)[C@H]3[C@@](O)(C(=O)OC)[C@H](OC(C)=O)[C@]5(CC)C=CCN6CC[C@]43[C@@H]65)C2)C1 [vinblastine]							> 100 µM
C=C1CC[C@@H]2C(C)(C)[C@H](O)CC[C@@]2(C)[C@@H]1COc1ccc2ccc(=O)oc2c1 [EXAMPLE MOLECULE I]	45 µM	21 µM	2.5 µM	> 50 µM	0.75 µM	19 µM	
C/C(=C\COc1ccc2ccc(=O)oc2c1)CC/C=C(\C)CCC(O)C(C)(C)O (stereo not drawn) [REFERENCE MOLECULE II]	> 50 µM	> 50 µM	> 50 µM	> 50 µM	7.6 µM	> 50 µM	
C=C1CC[C@@H]2[C@](C)(COC(C)=O)[C@@H](O)CC[C@@]2(C)[C@@H]1COc1ccc2ccc(=O)oc2c1 [EXAMPLE MOLECULE III]	> 50 µM	> 50 µM	> 50 µM	> 50 µM	0.017 µM	> 50 µM	
C=C1CC[C@@H]2[C@](C)(C=O)[C@@H](O)CC[C@@]2(C)[C@@H]1COc1ccc2ccc(=O)oc2c1 [EXAMPLE MOLECULE V]	> 50 µM	> 50 µM	> 50 µM	> 50 µM	0.024 µM	> 50 µM	
C=C1CC[C@@H]2[C@](C)(COC(C)=O)[C@H](O)CC[C@@]2(C)[C@@H]1COc1ccc2ccc(=O)oc2c1 [EXAMPLE MOLECULE IV]	> 50 µM	> 50 µM	> 50 µM	> 50 µM	0.37 µM	> 50 µM	
